# Data taken from US20110230472A1, “RING-FUSED AZOLE DERIVATIVE HAVING PI3K-INHIBITING ACTIVITY” (Shionogi & Co., Ltd., priority 2008, published 2011).
# How the values were obtained:
# PI-3 kinase γ = PI-3 kinase γ (Homo sapiens, UniProt P48736); assay: PI3Kγ inhibitory activity (Ki value), HTRF; assay type: biochemical; details: Ki=IC50/(1+10 μM ATP/Km)
# Summary of the method: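 IC50 was measured by HTRF over 50-0.05 μmol/L compound and fitted by logistic approximation or two-point linear regression. ATP Km came from Lineweaver-Burk plots of HTRF signal at 0.625-80 μmol/L ATP. Ki = IC50/(1+10 μM/Km).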
# [1] = tested on: Salmonella typhimurium TA98 line, TA100 line; assay: FAT test (mutagenicity); design: key: When the mutagenicity is negative, the compound is shown as (−); When positive, the compound is shown as (+); details: TA98 and TA100 lines; non-metabolism-activation and metabolism-activation conditions
# Method: 20 μL of Salmonella enterica subsp. typhimurium (Salmonella typhimurium TA98 line, TA100 line) cryopreserved was inoculated to 10 mL of liquid nutrient medium (2.5% Oxoid nutrient broth No. 2) and then precultured at 37° C. for 10 hours with shaking. Regarding TA98 line, after 9 mL of a bacterial suspension was centrifuged (2000×g, 10 minutes) to remove the culture solution, the bacteria was suspended in 9 mL of Micro F buffer solution (K2HPO4: 3.5 g/L, KH2PO4: 1 g/L, (NH4)2SO4: 1 g/L, tri-sodium citric acid dihydrate: 0.25 g/L, MgSO4.7H2O: 0.1 g/L), and then added to 110 mL of Exposure media (Micro F buffer solution containing biotin: 8 μg/mL, histidine: 0.2 μg/mL, glucose: 8 mg/mL). Regarding TA 100 line, 120 mL of Exposure media was added to 3.16 mL of the bacterial suspension to prepare a test bacterial suspension. 12 μL of a solution of a test substance in DMSO (diluted eight times in a common ratio of 2 from the maximum dose of 50 mg/mL); 12 μL of DMSO as a negative control; 50 μg/mL 4-nitroquinoline-1-oxide solution in DMSO for TA98 line or 0.25 μg/mL 2-(2-furyl)-3-(5-nitro-2-furyl)acrylamide solution in DMSO as a positive control for TA 100 line in the case of a non-metabolism-activation condition; 12 μL of 40 μg/mL 2-aminoanthracene solution in DMSO for TA98 line or 20 μg/mL of 2-aminoanthracene solution in DMSO for TA100 line in the case of a metabolism-activation condition; were each mixed with 588 μL of the test bacterial suspension (in the case of a metabolism activation condition, a mixed solution of 498 μL of the test bacterial suspension and 90 μL S9 mix) and then cultured at 37° C. at 90 minutes with shaking. 460 μL of the bacterial suspension to which a test substance was exposed was mixed with 230 μL of Indicator media (a Micro F buffer solution containing 8 μg/mL biotin, 0.2 μg/mL histidine, 8 mg/mL glucose, and 37.5 μg/mL bromocresol purple). 50 μL thereof was dispensed to microplate 48 wells/dose and then statically cultured at 37° C. for 3 days. In a well containing bacteria which obtained proliferation potency by mutation of the amino acid (histidine) synthetase gene, the change of pH caused the color change from purple to yellow. Thus, in 48 wells per dose, the number of the bacteria-proliferation wells in which the color changed to yellow was counted, compared with a group of negative controls, and then evaluated. When the mutagenicity is negative, the compound is shown as (−). When positive, the compound is shown as (+).
# [2] = tested on: AKT phosphorylation in human monocyte-like cell line THP-1; assay: AKT phosphorylation inhibitory activity in MCP-1-stimulated THP-1 cells (ELISA); assay type: cell-based; details: 1 μmol/L solution of each compound, MCP-1 stimulation, read-out: AKT phosphorylation inhibition ratio
# Summary of the method: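 THP-1 cells (6.6×10^6/mL in HBSS) were preincubated 5 min at 37° C with compound at 1 μmol/L (0.2% DMSO), then stimulated with MCP-1 for 30 s. After lysis, phospho-Akt Ser473 was measured by sandwich ELISA (A450); inhibition ratio used no-MCP-1 samples as 0% activity.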
# Sequence of PI-3 kinase γ (P48736 whole entry): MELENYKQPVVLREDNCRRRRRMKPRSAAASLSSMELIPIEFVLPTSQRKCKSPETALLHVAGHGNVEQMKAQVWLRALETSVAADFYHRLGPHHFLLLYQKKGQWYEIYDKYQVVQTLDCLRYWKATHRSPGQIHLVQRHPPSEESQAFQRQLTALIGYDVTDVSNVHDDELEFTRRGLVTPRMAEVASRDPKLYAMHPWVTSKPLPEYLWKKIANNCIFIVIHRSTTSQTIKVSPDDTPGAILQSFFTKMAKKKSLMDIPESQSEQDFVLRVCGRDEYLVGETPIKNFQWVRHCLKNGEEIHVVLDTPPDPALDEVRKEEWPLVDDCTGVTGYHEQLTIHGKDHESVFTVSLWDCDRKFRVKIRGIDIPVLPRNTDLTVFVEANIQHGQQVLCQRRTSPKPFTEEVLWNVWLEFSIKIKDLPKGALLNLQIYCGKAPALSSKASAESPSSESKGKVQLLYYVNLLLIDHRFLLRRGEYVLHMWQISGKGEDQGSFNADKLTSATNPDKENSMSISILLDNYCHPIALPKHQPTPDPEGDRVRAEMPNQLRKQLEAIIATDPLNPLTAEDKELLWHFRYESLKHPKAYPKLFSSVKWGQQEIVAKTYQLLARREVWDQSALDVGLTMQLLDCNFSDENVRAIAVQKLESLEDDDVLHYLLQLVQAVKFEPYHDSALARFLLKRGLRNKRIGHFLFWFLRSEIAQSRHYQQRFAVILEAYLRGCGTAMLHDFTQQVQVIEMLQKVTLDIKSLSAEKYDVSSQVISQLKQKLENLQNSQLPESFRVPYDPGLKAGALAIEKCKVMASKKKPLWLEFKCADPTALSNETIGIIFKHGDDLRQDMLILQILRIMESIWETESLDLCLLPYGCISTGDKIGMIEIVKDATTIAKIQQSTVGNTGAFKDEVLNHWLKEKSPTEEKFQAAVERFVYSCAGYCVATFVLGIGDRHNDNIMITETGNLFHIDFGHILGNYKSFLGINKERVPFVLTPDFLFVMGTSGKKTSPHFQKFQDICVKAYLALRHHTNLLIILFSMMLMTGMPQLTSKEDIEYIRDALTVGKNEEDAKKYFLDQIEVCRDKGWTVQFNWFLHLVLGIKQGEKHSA
Ki (PI-3 kinase γ) [nM],Compound,mutagenicity (FAT test) [1],inhibition [2] [%]
29,COc1cc(N2CCc3nc(NC(=O)NCc4cc(=O)[nH]o4)sc3C2)nc(OC)n1 [Compound I-279],–,–
–,CNC(=O)Nc1cc2n(n1)CCN2c1ccc(S(C)(=O)=O)cc1 [Compound I-89],(−),–
–,CN1CCc2cc(N3CCn4nc(NC(=O)c5cccnc5)cc43)ccc2C1=O [Compound I-347],–,80.6
–,CNC(=O)Nc1nc2c(s1)CN(c1ccnc(OC)n1)CC2 [Compound I-142],(−),–
–,CN1CCc2cc(N3CCn4nc(NC(=O)c5ccco5)cc43)ccc2C1=O [Compound I-358],(−),95.9
22,COc1cc(N2CCc3nc(NC(=O)NCC(=O)O)sc3C2)nc(OC)n1 [Compound I-208],–,–
